Like-named read-outs stand apart in the source and are kept apart here.

We go through 40 compounds from patent EP1724268A1, “COMPOUND HAVING TGF-BETA INHIBITORY ACTIVITY AND PHARMACEUTICAL COMPOSITION CONTAINING SAME” (KIRIN BEER KABUSHIKI KAISHA, priority 2004, dated 2005).

The experiment has as its system TGFβ signal. The experiment in a line: TGFβ signal inhibitory activity, (SBE)4-Luc reporter in A549 cells (Test Examples 1A and 1B). It counts as cell-based, human. The settings on record: for inhibition at 3 µM / inhibition at 10 µM: Homo sapiens, A549, read-out: TGFβ inhibition rate, %. The method, then: Test Example 1A: TGFβ signal inhibitory activity (in vitro test) The compounds according to the present invention was evaluated for TGFβ signal inhibitory activity according to the method described in J. Boil .Chem., 273, 21145-21152 (1998). Specifically, a plasmid having four tandem binding sequences of Smad3, a TGF-beta signal transducer, to the upstream of a luciferases gene were used as a reporter plasmid ((SBE)4-Luc) to detect TGF-beta signal, This reporter gene was introduced into human pulmonary carcinoma epithelial cells (A549) (available from ATCC) to establish a stable cell line. A test compound and TGFβ-1 (2 ng/ ml) were added to the cells, and the mixture was cultured for 4 hr. In this case, the compounds according to the present invention synthesized in the Examples were used as the test compound. After the culture, the luciferase activity of the cells were measured by chemiluminescence (Steady Glo (trademark) luciferase assay system, available from Promega). Likewise, the luciferase activity was measured as a control against the culture of cells with the addition of TGFβ only and the culture of cells without the addition of both TGFβ and the test compound.
The TGFβ inhibition (%) was calculated by the following equation, based on the measurement results. TGFβ inhibition(%) = (A-B)/(A-C) × 100 [formula] wherein • A: luciferase activity with the addition of TGFβ1 and without the addition of test compound (relative luciferase unit), • B: luciferase activity with the addition of both TGFβ1 and test compound (relative luciferase unit), and • C: luciferase activity without the addition of both TGFβ1 and test compound (relative luciferase unit).
The test was carried out for each of test compound at the concentrations of 3 µM and 10 µM. For certain test compounds, the test was further carried out for test compound at the concentration of 1 µM.
For the compounds of Reference Examples, the TGFβ signal inhibitory activity was evaluated in the same manner as in Test Example 1A.

The mark [1] stands for this setting: test compound 3 µM, Reference Examples, Table 1B.
The mark [2] stands for this setting: test compound 10 µM, Reference Examples, Table 1B.
Setting [3] is: test compound 3 µM, TGFβ-1 2 ng/ml, 4 hr, Table 1A.
Where [4] appears, read: test compound 10 µM, TGFβ-1 2 ng/ml, 4 hr, Table 1A.
The mark [5] stands for this setting: 3 µM, compounds of Reference Examples (Test Example 1B).
Where [6] appears, read: 10 µM, compounds of Reference Examples (Test Example 1B).

The inhibition is the relative decrease from the control value, in per cent. Take `COc1cc2c(Oc3ccc(C)cc3C(=O)c3ccccc3)ccnc2cc1OCC(O)CN1CCN(C)CC1` (centres unmarked) [Compound r158]: the inhibition at 3 µM under setting [1] came to 100%. Further, the inhibition at 10 µM under setting [2] is 100%.
Turning to `COc1cc2c(Oc3cc4cccnc4nc3-c3ccccc3)ccnc2cc1C(N)=O` [Compound 147, 6-Methoxy-4-(2-phenyl-[1,8]naphthyridin-3-yloxy)-quinoline-7-carboxylic acid amide], the inhibition at 3 µM under setting [3] was determined as 34%. For the same compound, the inhibition at 10 µM under setting [4] came to 77%.
Turning to `COc1cc2c(Oc3ccc(C)cc3C(=O)c3ccccc3)ccnc2cc1OCC(O)CN1CCC(N2CCCCC2)CC1` (centres unmarked) [Compound r156], the inhibition at 3 µM under setting [1] was found to be 99%. The inhibition at 10 µM under setting [2] turned out to be 100%.
As to `COc1cc2nccc(Oc3cc4cccnc4nc3-c3ccccc3)c2cc1OCCO` [Compound 125, 2-[7-Methoxy-4-(2-phenyl-[1,8]naphthyridin-3-yloxy)-quinolin-6-yloxy]-ethanol], the inhibition at 3 µM under setting [3] turned out to be 99%. In addition, the inhibition at 10 µM under setting [4] was 100%.
In the case of `CCc1ccc(Oc2ccnc3ccccc23)c(-c2ncccn2)n1` [Compound 117, 4-(6-Ethyl-2-pyrimidin-2-yl-pyridin-3-yloxy)-quinoline], the inhibition at 3 µM under setting [3] is 96%. Besides, the inhibition at 10 µM under setting [4] amounted to 100%.
Take `COc1cc2nccc(Oc3cc4ccccc4nc3-c3cccc(CO)c3)c2cc1OC` [Compound r284, {3-[3-(6,7-Dimethoxy-quinolin-4-yloxy)-quinolin-2-yl]-phenyl}-methanol]: under setting [5], the inhibition at 3 µM is 96%. Besides, under setting [6], the inhibition at 10 µM came to 100%.
For `CC=Cc1ccccc1Oc1ccnc2cc(OC)c(OC)cc12` [Compound r2], the inhibition at 3 µM under setting [1] was 13%. In addition, the inhibition at 10 µM under setting [2] was 88%.
Turning to `CNC(=O)c1cc(OC)ccc1Oc1ccnc2cc(OC)c(OC)cc12` [Compound r110], the inhibition at 3 µM under setting [1] was 55%. Besides, the inhibition at 10 µM under setting [2] was determined as 93%.
With `COc1cc2c(Oc3cc4ccccc4nc3C)ccnc2cc1OCc1ccccc1` [Compound r351, 7-Benzyloxy-6-methoxy-4-(2-methyl-quinolin-3-yloxy)-quinoline], under setting [5], the inhibition at 3 µM was found to be 42%. Besides, the inhibition at 10 µM under setting [6] is 90%.
In the case of `COc1cc2nccc(Oc3ccc(O)cc3C(C)=O)c2cc1OC` [r176], under setting [5], the inhibition at 3 µM was determined as 32%. The inhibition at 10 µM under setting [6] stood at 67%.
On the same counts, the results for `COc1cc2nccc(Oc3ccc(SC)nc3-c3ccccn3)c2cc1OC` [Compound r266] are 92% and 100%.
In the case of `CCCCc1ccc(Oc2ccnc3cc(OC)c(OC)cc23)c(C(C)=O)c1` [r174], the inhibition at 3 µM under setting [5] was found to be 57%. Also, the inhibition at 10 µM under setting [6] turned out to be 96%.
Regarding `COc1cc2c(Oc3cc4ccccc4nc3C)ccnc2cc1OCCO` [Compound r369], under setting [5], the inhibition at 3 µM is 99%. Further, the inhibition at 10 µM under setting [6] was found to be 100%.
Turning to `COc1cc2c(Oc3cc(C)c(C)nc3-c3ccc(C)cn3)ccnc2cc1OCC1CO1` (centres unmarked) [Compound r457], the inhibition at 3 µM under setting [5] is 97%. The inhibition at 10 µM under setting [6] came out at 100%.
For `COc1cc2c(Oc3cc4ccccc4nc3C(C)=O)ccnc2cc1OCC(O)CO` (centres unmarked) [Compound r395], the inhibition at 3 µM under setting [5] was 96%. Under setting [6], the inhibition at 10 µM was 100%.
For `COc1cc2nccc(Oc3ccc(C)nc3-c3ccccc3)c2cc1OC` [Compound r223, 6,7-Dimethoxy-4-(6-methyl-2-phenyl-pyridin-3-yloxy)-quinoline], in that order: 99% and 100%.
`COc1cc2c(Oc3cc4ccccc4nc3C)ccnc2cc1OCCCNC(=N)N` [Compound r377]: the inhibition at 3 µM under setting [5] amounted to 93%. The inhibition at 10 µM under setting [6] came out at 100%.
On to `COc1cc2c(Oc3cc(C)c(C)cc3C(C)=O)ccnc2cc1OCc1ccccc1` [Compound r313], for which, under setting [5], the inhibition at 3 µM was determined as 56%. The inhibition at 10 µM under setting [6] amounted to 94%.
For `COc1cc2nccc(Oc3ccc(C)nc3-c3ccc(C)cc3)c2cc1OC` [Compound r242], under setting [5], the inhibition at 3 µM amounted to 68%. Further, the inhibition at 10 µM under setting [6] came out at 99%.
Turning to `Clc1ccc2ncnc(Oc3cc4cccnc4nc3-c3ccccc3)c2c1` [Compound 68, 6-Chloro-4-(2-phenyl-[1,8]naphthyridin-3-yloxy)-quinazoline], the inhibition at 3 µM under setting [3] is 43%. For the same compound, under setting [4], the inhibition at 10 µM is 91%.
Take `COc1cc2c(Oc3cc(C)c(C)nc3-c3ccccn3)ccnc2cc1C(N)=O` [Compound 145, 4-(5,6-Dimethyl-[2,2']bipyridinyl-3-yloxy)-6-methgxy-quinoline-7-carboxylic acid amide]: the inhibition at 3 µM under setting [3] was determined as 78%. In addition, the inhibition at 10 µM under setting [4] was determined as 100%.
For `Cc1ccc2nccc(Oc3cc(C)c(C)nc3-c3ccccn3)c2c1` [Compound 157, 5,6-Dimethyl-3-(6-methyl-quinolin-4-yloxy)-[2,2']bipyridine], in that order: 99% and 100%.
Regarding `COc1cc2nccc(Oc3cc4cccnc4nc3-c3ccccc3)c2cc1OC` [Compound r422], under setting [5], the inhibition at 3 µM is 100%. Also, under setting [6], the inhibition at 10 µM is 100%.
For `COc1cc2ncnc(Oc3cc4cccnc4nc3-c3ccccc3)c2cc1OC` [r436], the inhibition at 3 µM under setting [5] is 99%. For the same compound, under setting [6], the inhibition at 10 µM was found to be 100%.
In the case of `CCc1ccc(Oc2ccnc3cc(OC)c(OC)cc23)c(C(C)=O)c1` [r172], the inhibition at 3 µM under setting [5] worked out at 82%. In addition, under setting [6], the inhibition at 10 µM was found to be 99%.
For the compound `COc1cc2nccc(Oc3ccc(C)cc3C(=O)c3ccc(OCCN4CCCCC4)cc3)c2cc1OC` [Compound r190], under setting [5], the inhibition at 3 µM is 30%. Further, under setting [6], the inhibition at 10 µM was determined as 86%.
On to `COc1cc2nccc(Oc3ccc(C)nc3-c3ccccc3Cl)c2cc1OC` [Compound r228], for which the inhibition at 3 µM under setting [5] came out at 88%. Further, the inhibition at 10 µM under setting [6] was determined as 100%.
With `COc1cc2c(Oc3cc(C)c(C)nc3-c3nc(C)c(C)s3)ccnc2cc1OCC(O)CO` (centres unmarked) [Compound r464], the inhibition at 3 µM under setting [5] worked out at 97%. Besides, the inhibition at 10 µM under setting [6] was 100%.
`COc1cc2nccc(Oc3ccccc3C(=O)/C=C/c3ccccc3)c2cc1OC` [r57]: the inhibition at 3 µM under setting [1] amounted to 10%. Also, the inhibition at 10 µM under setting [2] was 55%.
In the case of “4-(6-Fluoro-2-iodo-pyridin-3-yloxy)-6,7-dimethoxy-quinoline [Compound r211]”, the “TGFβ inhibition rate, %” value is 87% under setting [5] and 100% under setting [6].
On to `COc1cc2nccc(Oc3ccc(C)cc3C)c2cc1OC` [r5], for which the inhibition at 3 µM under setting [1] was 13%. Moreover, the inhibition at 10 µM under setting [2] was found to be 56%.
In the case of `COc1cc2c(Oc3cc(C)c(C)cc3C(C)=O)ccnc2cc1OCCCCl` [Compound r318], the inhibition at 3 µM under setting [5] was 82%. Besides, under setting [6], the inhibition at 10 µM stood at 100%.
For `COc1cc2nccc(Oc3cc4cccnc4nc3-c3ccncc3)c2cc1OC` [Compound 89, 3-(6,7-Dimethoxy-quinolin-4-yloxy)-2-pyridin-4-yl-[1,8]naphthyridine], the inhibition at 3 µM under setting [3] was found to be 36%. The inhibition at 10 µM under setting [4] stood at 77%.
On to `COc1cc2nccc(Oc3c(C(C)=O)ccc4ccccc34)c2cc1OC` [Compound r41], for which the inhibition at 3 µM under setting [1] came out at 57%. In addition, the inhibition at 10 µM under setting [2] turned out to be 97%.
On the same counts, the results for `COc1ccc(Oc2ccnc3cc(OCCCl)c(OC)cc23)c(C(C)=O)c1` [r119] are 96% and 97%.
In the case of `Clc1cc2nccc(Oc3cc4cccnc4nc3-c3ccccc3)c2cc1Cl` [Compound 58, 3-(6,7-Dichloro-quinolin-4-yloxy).2-phenyl-[1,8]naphthyridine], the inhibition at 3 µM under setting [3] is 83%. The inhibition at 10 µM under setting [4] is 100%.
As for `COc1cc2c(Oc3cc4ccccc4nc3C(C)=O)ccnc2cc1OCC1CO1` (centres unmarked) [Compound r394], the inhibition at 3 µM under setting [5] is 83%. Moreover, the inhibition at 10 µM under setting [6] was 100%.
On to `COc1cc2nccc(Oc3cc(C)c(C)nc3-c3ccccn3)c2cc1OCc1ccccc1` [Compound 138, 3-(6-Benzyloxy-7-methoxy-quinolin-4-yloxy)-5,6-dimethyl-[2,2'] bipyridine], for which the inhibition at 3 µM under setting [3] was 98%. Further, the inhibition at 10 µM under setting [4] was determined as 100%.
Regarding `COc1cc2c(Oc3ccc(C)cc3C(=O)c3ccccc3)ccnc2cc1OCC(O)CN1CCOCC1` (centres unmarked) [Compound r159], the inhibition at 3 µM under setting [1] was 98%. Besides, the inhibition at 10 µM under setting [2] amounted to 100%.
Take `COc1cc2nccc(Oc3cc4cccnc4nc3-c3ccc(Br)cc3)c2cc1OC` [Compound 85, 2-(4-Bromo-phenyl)-3'-(6,7-dimethoxy-quinolin-4-yloxy)-[1,8]naphthyridine]: the inhibition at 3 µM under setting [3] was determined as 48%. In addition, under setting [4], the inhibition at 10 µM is 97%.
